Reference: ChEMBL document CHEMBL5029173, “Differential BET Bromodomain Inhibition by Dihydropteridinone and Pyrimidodiazepinone Kinase Inhibitors” (J Med Chem, 2021)
Calls of active or inactive are those of the source. The calls are words filed in the database; no cut-off is given here.

Legend:
[1] = target: T1, Bromodomain-containing protein 4 (Homo sapiens, UniProt O60885); assay: Binding affinity to recombinant human N-terminal hexaHis-tagged BRD4 expressed in Escherichia coli BL21 (DE3) cells by qPCR assay
[2] = target: T1, Bromodomain-containing protein 4; assay: Binding affinity to recombinant human N-terminal hexaHis-tagged BRD4 expressed in Escherichia coli BL21 (DE3) cells by ITC analysis
[3] = target: T2, Bromodomain testis-specific protein (Homo sapiens, UniProt Q58F21); assay: Binding affinity to recombinant human N-terminal hexaHis-tagged BRDT expressed in Escherichia coli BL21 (DE3) cells by ITC analysis
MM1.S = assay: Inhibition of cell growth in human MM1.S cells incubated for 72 hrs by CellTiter-blue reagent based assay; format: functional
HEK-293T = assay: Inhibition of cell growth in HEK293T cells incubated for 72 hrs by CellTiter-blue reagent based assay; format: functional; conditions: Homo sapiens
[4] = target: T1, Bromodomain-containing protein 4
Description: Binding affinity to recombinant human N-terminal hexaHis-tagged BRD4 expressed in Escherichia coli BL21 (DE3) cells assessed as change in melting temperature by DSF assay

[5] = target: T2, Bromodomain testis-specific protein
Description: Binding affinity to recombinant human N-terminal hexaHis-tagged BRDT expressed in Escherichia coli BL21 (DE3) cells assessed as change in melting temperature by DSF assay

[6] = target: Serine/threonine-protein kinase PLK1 (Homo sapiens) (UniProt P53350); conditions: MM1.S, dose 30-100 nM, time 6.0 hrs
Chain of Serine/threonine-protein kinase PLK1 (Homo sapiens) (P53350 whole entry): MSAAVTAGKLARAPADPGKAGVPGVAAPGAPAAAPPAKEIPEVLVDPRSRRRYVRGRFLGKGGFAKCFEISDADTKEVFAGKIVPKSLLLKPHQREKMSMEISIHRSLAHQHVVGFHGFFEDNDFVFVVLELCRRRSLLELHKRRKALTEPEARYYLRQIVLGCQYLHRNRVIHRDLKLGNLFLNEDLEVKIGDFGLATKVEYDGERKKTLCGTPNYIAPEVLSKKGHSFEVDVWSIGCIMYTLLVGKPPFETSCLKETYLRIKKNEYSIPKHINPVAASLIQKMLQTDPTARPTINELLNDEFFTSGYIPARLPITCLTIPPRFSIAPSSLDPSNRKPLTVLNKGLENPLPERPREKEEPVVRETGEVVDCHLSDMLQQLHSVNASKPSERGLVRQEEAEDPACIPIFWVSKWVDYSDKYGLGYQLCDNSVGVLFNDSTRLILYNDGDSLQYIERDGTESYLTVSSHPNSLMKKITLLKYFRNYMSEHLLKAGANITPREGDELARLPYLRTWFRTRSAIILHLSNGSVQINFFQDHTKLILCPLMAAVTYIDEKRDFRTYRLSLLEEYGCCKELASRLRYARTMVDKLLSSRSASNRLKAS

[7] = target: T1, Bromodomain-containing protein 4; assay: Binding affinity to recombinant human N-terminal hexaHis-tagged BRD4 expressed in Escherichia coli BL21 (DE3) cells by MST assay
[8] = target: T2, Bromodomain testis-specific protein; assay: Binding affinity to recombinant human N-terminal hexaHis-tagged BRDT expressed in Escherichia coli BL21 (DE3) cells by MST assay
[9] = target: T2, Bromodomain testis-specific protein; assay: Binding affinity to recombinant human N-terminal hexaHis-tagged BRDT expressed in Escherichia coli BL21 (DE3) cells by qPCR assay

Structure (SMILES)	Kd [1] [nM]	Kd [2] [nM]	Kd [3] [nM]	IC50 (MM1.S) [nM]	IC50 (HEK-293T) [nM]	ΔTm [4] [°C]	ΔTm [5] [°C]	inhibition [6]	Kd [7] [nM]	Kd [8] [nM]	Kd [9] [nM]
Cc1cnc(Nc2ccc(C(=O)NC3CCN(C)CC3)c(F)c2)nc1Nc1ccc(Cl)c(NS(=O)(=O)C(C)(C)C)c1	12	54	59	26	140	13.5	11.9	–	–	–	–
C[C@@H](Oc1cc(-n2cnc3ccc(CN4CCN(C)CC4)cc32)sc1C(N)=O)c1ccccc1C(F)(F)F	–	–	–	–	–	–	–	Active	–	–	–
CCOc1cc(C(=O)N2CCC(N3CCN(C)CC3)CC2)ccc1Nc1ncc2c(n1)N(C1CCCC1)c1ccccc1C(=O)N2C	69	213	2100	280	> 10000	7.3	2.3	–	205	1600	500
CC[C@@H]1C(=O)N(C)c2cnc(Nc3ccc(C(=O)N[C@H]4CC[C@H](N5CCN(CC6CC6)CC5)CC4)cc3OC)nc2N1C(C)C [VOLASERTIB]	77	317	1700	4.5	1.1	–	5	Active	169	1030	113
Cc1sc2c(c1C)C(c1ccc(Cl)cc1)=N[C@@H](CC(=O)OC(C)(C)C)c1nnc(C)n1-2	–	–	–	33	–	–	–	inactive	–	–	–
COc1cc(C(=O)N2CCC(N3CCN(C)CC3)CC2)ccc1Nc1ncc2c(n1)N(C)c1ccccc1C(=O)N2C	–	–	–	530	2800	–	3.8	inactive	–	–	–
CCOc1cc(N2CCC(O)CC2)ccc1Nc1ncc2c(n1)N(C)c1ccccc1C(=O)N2C	205	735	4200	–	> 10000	–	2.9	–	800	3500	675
